For this test, the target named is SARS-CoV-2 M^pro (3CL^pro), MBP-tagged 3CL protease (Severe acute respiratory syndrome coronavirus 2, UniProt P0DTD1). As to the kind of experiment: biochemical.

IC50 data for one compound are collected here from PMC10688161 (ACS Omega, 2023).

What is called IC50 is the midpoint of a concentration-inhibition curve. A low value points to greater potency in that assay.

Take `O=C(O)c1cc(C(=O)O)c2c(n1)C(=O)C(=O)c1cc(C(=O)O)[nH]c1-2` [PQQ, 4,5-dioxo-4,5-dihydro-1H-pyrrolo[2,3-f] quinoline-2,7,9-tricarboxylic acid]: the IC50 turned out to be 2.8 µM.
